Measurements from patent publication US20120083525A1, “COMPOSITION FOR PREVENTING OR TREATING OBESITY-RELATED DISEASES MEDIATED BY THE ACTIVATION OF AMPK AND INCLUDING 2,5-BIS-ARYL-3,4-DIMETHYLTETRAHYDROFURAN LIGNANS AS ACTIVE INGREDIENTS” (Amorepacific Corporation, priority 2009, published 2012).

Test system: high fat diet-induced obese model
Assay: Anti-obesity effect in diet-induced obese (DIO) model, body weight change
Settings: 100 mg/kg/day oral
Experimental: For the oral administration, the substances were dissolved in a 5% aqueous solution of methyl cellulose (Sigma Co., USA). 7-week-old male C57BL/6J mice were prepared for test, with 10 heads per group. After an accommodation period of 1 week, the mice were kept in individual cages and maintained with 12/12-hr light-dark cycles (lighting from 7 am to 5 pm). […] The corresponding substance was orally administered once a day at regular hours (10 am) for 8 weeks. Body weight was measured once a week (11 am). After 8 weeks of administration, the body weight of the test groups and the control group was analyzed.

## COc1cc(C[C@H](C)[C@H](C)Cc2ccc3c(c2)OCO3)ccc1O [Macelignan, macelignan]
14 days
  Body weight change (g) after oral administration, 14 days: 4.00 g
21 days
  Body weight change (g) after oral administration, 21 days: 5.31 g
28 days
  Body weight change (g) after oral administration, 28 days: 6.52 g
35 days
  Body weight change (g) after oral administration, 35 days: 8.91 g
42 days
  Body weight change (g) after oral administration, 42 days: 9.70 g
49 days
  Body weight change (g) after oral administration, 49 days: 10.63 g
